Measured values published in patent publication US8912227B1, “Bicyclic pyrrole derivatives useful as agonists of GPR120” (Janssen Pharmaceutica NV, priority 2014, dated 2014).

How the values were obtained:
Type in all cases: cell-based
Human GPR120 short form [1] = biological target: T1, Human GPR120 short form (Homo sapiens, UniProt Q5NUL3); experiment: Human GPR120 calcium flux assay, Procedure Calcium B; details: HEK-293 cells expressing human GPR120 short form, 4200 cells/well, FLIPR
T1 construct: expressed in transfected cells
T1 sequence (Q5NUL3 1-361): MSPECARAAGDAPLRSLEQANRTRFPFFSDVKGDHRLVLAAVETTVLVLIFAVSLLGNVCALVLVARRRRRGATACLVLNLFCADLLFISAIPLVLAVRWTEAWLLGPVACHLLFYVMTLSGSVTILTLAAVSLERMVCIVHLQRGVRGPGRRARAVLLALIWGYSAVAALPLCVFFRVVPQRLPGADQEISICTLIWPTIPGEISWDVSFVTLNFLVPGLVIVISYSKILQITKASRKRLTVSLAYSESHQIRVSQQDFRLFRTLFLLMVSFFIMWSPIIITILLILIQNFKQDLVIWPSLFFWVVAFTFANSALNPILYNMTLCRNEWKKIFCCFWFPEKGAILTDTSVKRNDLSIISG

[2] = biological target: T2, long form of human GPR120 (Homo sapiens, UniProt Q5NUL3); experiment: Human GPR120 DiscoveRx PathHunter β-Arrestin assay, Procedure β-arrestin A; details: PathHunter CHO-K1 GPR120 β-Arrestin cell line, 3000 cells per well
T2 construct: host or cells: PathHunter CHO-K1 GPR120 β-Arrestin Cell Line
T2 sequence (Q5NUL3 1-377 isoform Q5NUL3-1): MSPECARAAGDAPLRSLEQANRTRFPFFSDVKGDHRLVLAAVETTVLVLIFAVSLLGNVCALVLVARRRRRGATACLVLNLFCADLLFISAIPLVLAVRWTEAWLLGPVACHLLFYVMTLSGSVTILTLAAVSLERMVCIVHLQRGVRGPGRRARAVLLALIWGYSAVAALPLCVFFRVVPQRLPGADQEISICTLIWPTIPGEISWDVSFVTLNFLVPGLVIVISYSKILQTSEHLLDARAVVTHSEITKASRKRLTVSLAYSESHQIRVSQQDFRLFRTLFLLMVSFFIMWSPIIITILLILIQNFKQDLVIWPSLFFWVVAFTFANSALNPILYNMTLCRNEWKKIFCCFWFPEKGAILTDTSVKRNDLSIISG
T2 sequence (P32121 whole entry partner): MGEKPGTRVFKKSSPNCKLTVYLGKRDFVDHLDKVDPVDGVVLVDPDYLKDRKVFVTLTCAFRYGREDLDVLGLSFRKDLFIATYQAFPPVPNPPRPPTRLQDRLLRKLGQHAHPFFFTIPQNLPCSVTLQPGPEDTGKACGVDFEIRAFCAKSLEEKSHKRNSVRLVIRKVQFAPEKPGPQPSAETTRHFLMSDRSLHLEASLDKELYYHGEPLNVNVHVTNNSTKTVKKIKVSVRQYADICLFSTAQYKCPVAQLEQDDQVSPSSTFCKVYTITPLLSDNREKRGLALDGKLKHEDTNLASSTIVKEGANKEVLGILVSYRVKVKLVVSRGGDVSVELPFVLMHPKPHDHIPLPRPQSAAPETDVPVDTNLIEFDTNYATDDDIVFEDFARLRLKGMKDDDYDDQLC
Excerpt: The binding of an agonist (medium/long chain fatty acids or small molecule agonists) to the G-protein-coupled receptor GPR120 activates phospholipase C, leading to release of intracellular Ca^+2 through the generation of inositol 1,4,5-trisphosphate (InsP3 or IP3). GPR120 activation can also trigger intracellular signaling via recruitment of β-Arrestin. In the present method, agonist-induced activation of the human GPR120 receptor is monitored through the use of PathHunter CHO-K1 GPR120 β-Arrestin Cell Line engineered by DiscoveRx, as detailed below. The cell lines are designed to co-express both the ProLink/Enzyme Donor (PK)-tagged GPCR and the Enzyme […] (EA)-tagged Beta-Arrestin fusion proteins. Upon GPR120 receptor stimulation/activation, the EA-tagged β-Arrestin portion is translocated to the tagged receptor, where the two enzyme fragments are brought within close proximity. Under these conditions, these fragments can interact and form an active Beta-gal enzyme complex through Enzyme Fragment Complementation (EFC). This active Beta-gal complex can enzymatically hydrolyse the substrate to produce a detectable light signal; therefore, activation as a function of agonist concentration can be expressed as an EC50 value to determine relative compound activities. This in vitro assay therefore serves to assess compound agonist activity of the GPR120.
In Procedure β-arrestin A, the cell used were PathHunter CHO-K1 GPR120 β-Arrestin Cell Line, expressing the long form of human GPR120 (Genbank accession number NM_181745), with 3000 cells per well.
The selected CHO-K1 GPR120 β-Arrestin cells were cultured in Ham's F12 media supplemented with 10% fetal bovine serum (FBS), 1% Glutamine, 1×p/s, 800 μg/ml G418 and 300 μg/ml Hygromycin B (for selection). Cell stocks were maintained and grown in a sub-confluent state using standard cell culture procedures. The day before the experiment, the cells were harvested with non-enzymatic cell dissociation buffer and re-suspended in complete growth media at the desired concentration. A Corning 384-plate was then seeded with the proper number of cells in a volume of 25 μL, per well. The seeded plates were incubated overnight at 37° C.
On the day of the experiment, the Assay Buffer containing (a) HBSS with Ca^++ and Mg^++, (b) 20 mM HEPES, and (c) 0.1% BSA stabilizer (pH 7.4) was prepared. The growth medium was gently removed from the cell plates and 20 μL of Assay Buffer added to each well. The plate was then incubated at 37° C. for 60 mins. Test compounds were serially diluted in Assay Buffer to desired concentrations (more particularly, to one or more of the following μM concentrations: 25 μM, 12.5 μM, 6.25 μM, 3.125 μM, 1.562 μM, 0.781 μM, 0.391 μM, 0.195 μM, 0.098 μM, 0.049 μM, 0.024 μM, 0.012 μM). Five μl of compound dilution was then added to each well and the plate incubated at 37° C. for 90 mins. The detection reagents were prepared according to the manufacture's instruction. Twelve μL of the detection reagents were added to each well and the plate incubated at room temperature for 60 mins.
The plates were read on an EnVision instrument, using Protocol name: Luminescence, Plate type: 384 Costar, Measurement height: 3 mm, Measurement time: 1 s, Aperture: 384 Plate aperture. The % activity relative to the positive control was calculated using the following equation:
The % Activity values were plotted versus the concentration of test compound and fitted to a sigmoidal dose-response curve with a Hill slope=1 (fixed value) using nonlinear regression with GraphPad Prism 5.0 to calculate the EC50 values. The Fitting Equation was: Y=Bottom+(Top−Bottom)/(1+10^((LogEC50−X)*HillSlope)), where X is the log of the concentration and Y is the response.

Human GPR120 short form [3] = biological target: T1, Human GPR120 short form; experiment: Human GPR120 calcium flux assay, Procedure Calcium A; details: HEK-293 cells expressing human GPR120 short form, 2500 cells/well, FLIPR
Outline: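 HEK293 cells stably expressing the human GPR120 short splice variant (NM_001195755.1) were seeded at 2500 cells/well, serum-starved 1 h and loaded with Fluo-4 NW plus probenecid. Compounds (100–0.012 μM solutions, 0.2% final DMSO) were added, and FLIPR calcium flux was read for 300 s. EC50 came from a variable-slope fit (Hill <2) of Fmax−Fmin.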

EC50 (Human GPR120 short form [1])	EC50 [2]	EC50 (Human GPR120 short form [3])	Structure (SMILES)
50 nM	98 nM	432 nM	Cc1ccc(-n2ccc(C(F)(F)F)c2COc2ccc(CCCO)c(F)c2F)cc1 [Compound 44, 3-(2,3-difluoro-4-[[1-(4-methylphenyl)-3-(trifluoromethyl)-1H-pyrrol-2-yl]methoxy]phenyl)propan-1-ol]
63 nM	359 nM	558 nM	Cc1ccc(-n2ccc(C(F)(F)F)c2COc2ccc(CCC(=O)O)c(C)c2C)cc1 [Compound 43, 3-(2,3-dimethyl-4-[[1-(4-methylphenyl)-3-(trifluoromethyl)-1H-pyrrol-2-yl]methoxy]phenyl)propanoic acid]
740 nM	258 nM	1090 nM	OCCCc1ccc(OCc2c(Cl)ccn2-c2ccc(Cl)cc2)c(F)c1F [Compound 10, 3-(4-{[3-Chloro-1-(4-chlorophenyl)-1H-pyrrol-2-yl]methoxy}-2,3-difluorophenyl)propan-1-ol]
91 nM	639 nM	836 nM	O=C(O)CCc1ccc(OCc2c(C(F)(F)F)ccn2-c2ccc(Cl)cc2)c(F)c1F [Compound 16, 3-(4-{[1-(4-Chlorophenyl)-3-(trifluoromethyl)-1H-pyrrol-2-yl]methoxy}-2,3-difluorophenyl)propanoic acid]
533 nM	238 nM	1090 nM	Cc1c(CCCO)ccc(OCc2c(C(F)(F)F)ccn2-c2ccc(Cl)cc2)c1C [Compound 17, 3-(4-{[1-(4-Chlorophenyl)-3-(trifluoromethyl)-1H-pyrrol-2-yl]methoxy}-2,3-dimethylphenyl)propan-1-ol]
227 nM	308 nM	931 nM	COc1ccc(-n2ccc(C(F)(F)F)c2COc2ccc(CCC(=O)O)c(C)c2C)cc1 [Compound 24, 3-(4-{[1-(4-Methoxyphenyl)-3-(trifluoromethyl)-1H-pyrrol-2-yl]methoxy}-2,3-dimethylphenyl)propanoic acid]
261 nM	283 nM	843 nM	Cc1c(CCCO)ccc(OCc2c(C(F)(F)F)ccn2-c2ccccc2)c1C [Compound 19, 3-(2,3-Dimethyl-4-{[1-phenyl-3-(trifluoromethyl)-1H-pyrrol-2-yl]methoxy}phenyl)propan-1-ol]
282 nM	87 nM	709 nM	OCCCc1ccc(OCc2c(C(F)(F)F)ccn2-c2ccc(Br)cc2)c(F)c1F [Compound 21, 3-(4-{[1-(4-Bromophenyl)-3-(trifluoromethyl)-1H-pyrrol-2-yl]methoxy}-2,3-difluorophenyl)propan-1-ol]
413 nM	203 nM	608 nM	COc1ccc(-n2ccc(C(F)(F)F)c2COc2ccc(CCCO)c(C)c2C)cc1 [Compound 25, 3-(4-{[1-(4-Methoxyphenyl)-3-(trifluoromethyl)-1H-pyrrol-2-yl]methoxy}-2,3-dimethylphenyl)propan-1-ol]
84 nM	293 nM	810 nM	Cc1ccc(-n2ccc(C(F)(F)F)c2COc2ccc(CCC(=O)O)c(F)c2F)cc1 [Compound 42, 3-(2,3-difluoro-4-[[1-(4-methylphenyl)-3-(trifluoromethyl)-1H-pyrrol-2-yl]methoxy]phenyl)propanoic acid]
30 nM	98 nM	98 nM	Cc1ccc(-n2ccc(C(F)(F)F)c2COc2c(F)cc(CCCO)cc2F)cn1 [Compound 48, 3-(3,5-difluoro-4-((1-(6-methylpyridin-3-yl)-3-(trifluoromethyl)-1H-pyrrol-2-yl)methoxy)phenyl)propan-1-ol trifluoroacetic acid]
230 nM	249 nM	916 nM	COc1ccc(-n2ccc(C(F)(F)F)c2COc2ccc(CCC(=O)O)c(F)c2F)cc1 [Compound 26, 3-(2,3-Difluoro-4-{[1-(4-methoxyphenyl)-3-(trifluoromethyl)-1H-pyrrol-2-yl]methoxy}phenyl)propanoic acid]
368 nM	130 nM	435 nM	OCCCc1ccc(OCc2c(Br)ccn2-c2ccc(Cl)cc2)c(F)c1F [Compound 5, 3-(4-{[3-Bromo-1-(4-chlorophenyl)-1H-pyrrol-2-yl]methoxy}-2,3-difluorophenyl)propan-1-ol]
82 nM	48 nM	434 nM	CCc1ccc(-n2ccc(C(F)(F)F)c2COc2c(F)cc(CCCO)cc2F)cc1 [Compound 33, 3-(4-[[1-(4-ethylphenyl)-3-(trifluoromethyl)-1H-pyrrol-2-yl]methoxy]-3,5-difluoro-phenyl)propan-1-ol]
67 nM	61 nM	222 nM	COc1ccc(-n2ccc(C(F)(F)F)c2COc2c(F)cc(CCCO)cc2F)cc1 [Compound 31, 3-(3,5-Difluoro-4-{[1-(4-methoxyphenyl)-3-(trifluoromethyl)-1H-pyrrol-2-yl]methoxy}phenyl)propan-1-ol]
161 nM	859 nM	934 nM	O=C(O)CCc1ccc(OCc2c(Cl)ccn2-c2ccc(Cl)cc2)c(F)c1F [Compound 11, 3-(4-{[3-chloro-1-(4-chlorophenyl)-1H-pyrrol-2-yl]methoxy}-2,3-difluorophenyl)propanoic acid]
66 nM	241 nM	375 nM	Cc1ccc(-n2ccc(C(F)(F)F)c2COc2ccc(CCCO)c(F)c2F)cn1 [Compound 47, 3-(2,3-difluoro-4-[[1-(6-methylpyridin-3-yl)-3-(trifluoromethyl)-1H-pyrrol-2-yl]methoxy]phenyl)propan-1-ol trifluoroacetic acid]
28 nM	16 nM	119 nM	Cc1ccc(-n2ccc(C(F)(F)F)c2COc2c(F)cc(CCCO)cc2F)cc1 [Compound 37, 3-(3,5-difluoro-4-[[1-(4-methylphenyl)-3-(trifluoromethyl)-1H-pyrrol-2-yl]methoxy]phenyl)propan-1-ol]
54 nM	46 nM	218 nM	COc1ccc(-n2ccc(C(F)(F)F)c2COc2ccc(CCCO)c(F)c2F)cc1 [Compound 27, 3-(2,3-Difluoro-4-{[1-(4-methoxyphenyl)-3-(trifluoromethyl)-1H-pyrrol-2-yl]methoxy}phenyl)propan-1-ol]
